Columns and labels:
Assay in all cases: In vitro anticancer activity test (MTT cell proliferation assay)
Assay type in all cases: cell-based
[1] = test system: human Burkitt's lymphoma cell Raji
Procedure: (§1) The anticancer activity of the compounds was tested using an in vitro cancer cell tests. The specific test method is as follows: • 1. Cell recovery and culture method: the cryovial was taken out from the liquid nitrogen container firstly, soaked directly in 37°C warm water, and shaked from time to time to let it thaw as soon as possible. Then, the cryovial was transferred to a clean bench, and the lid was open. The cell suspension was taken into a centrifuge tube using a rubber-tipped dropper and more than 10 times the culture medium was added, mixed well, and centrifuged at 50g for 5 minutes. Then, the supernatant was discarded, complete culture medium containing 10% fetal bovine serum was added to resuspend the cells, the cells was counted, the cell density was adjusted, and then inoculated into a culture bottle. The culture bottle was placed in a cell culture incubator at 5% CO2 and 37°C. The complete culture medium was replaced once the next day and the culture was continued. • 2. Cell passaging method: adherent cells in the logarithmic growth phase were placed in a clean bench, the original culture medium was discarded, and washed three times with 1×PBS. An appropriate amount of 0.25% trypsin digestion solution was added to moisten the cells, and then the trypsin solution was aspirated. The cells were placed in a cell culture incubator at 5% CO2 and 37°C for digestion for a suitable time, and observed under a microscope. When 90% of the cells become round, the cells were moved immediately to the clean bench and complete culture medium was added to terminate digestion. Then, the cells were dislodged by pipetting up and down with a rubber-tipped dropper to single cells. The cells were counted, and the cell density was adjusted. The cells were inoculated into a suitable culture bottle or dish, added enough complete culture medium, and placed in a cell culture incubator at 5% CO2 and 37°C for static culture. For suspension cells in the logarithmic phase, the original culture medium was directly centrifuged at 50g for 5 minutes, the supernatant was discarded, and the cells were washed once with PBS and centrifuged. After discarding the supernatant, the complete culture medium was added and the cells were dispersed using a rubber-tipped dropper. The cells are counted, and the cell density was adjusted. The cells were inoculated into appropriate culture bottles or culture dishes, and sufficient complete culture medium was added, and the cells were cultured in a cell culture incubator at 5% CO2 and 37°C. • 3. Cell proliferation assay: cells in good state in logarithmic phase were taken and appropriate amount of the cells was inoculated into 96-well plates according to the cell passage treatment method, with each well containing 180 µL complete medium. After the cells growth was recovered and the number of cells in each well is 5000±500, a drug was added for treatment. After drug treatment during the experimental time, MTT solution with a final concentration of 0.5 mg/mL was added to each well, and placed in a cell culture incubator at 5% CO2 and 37°C to allow a fully reaction of MTT with cells. After 4 hours, the solution in the 96-well plate was discarded, 100 µL of DMSO was added, and shaked to dissolve the formazan precipitated at the bottom of the plate, and the absorbance value of samples was detected at a wavelength of 570 nm using a microplate reader. Calculation method of cell viability rate: Viability rate = A sample group÷A control group × 100% [formula] • 4. Cell photography step: cells in good state in logarithmic phase were taken and an appropriate amount of cells was inoculated into 96-well plates according to the cell passage treatment method, with each well containing 180 µL complete medium. After the cells growth was recovered and the number of cells in each well is 5000 ± 500, a drug was added for treatment. […]

[2] = test system: human non-small cell lung cancer cell A549
Procedure: as §1

[3] = test system: pancreatic cancer cell PNAC-1
Procedure: as §1

[4] = test system: human breast cancer cell MFM223; details: MFM-223
Procedure: as §1

[5] = test system: human prostate cancer cell PC-3
Procedure: as §1

[6] = test system: human gastric cancer cell MGC-803
Procedure: as §1

[7] = test system: human colon cancer cell HCT 116
Procedure: as §1

[8] = test system: human osteosarcoma cell U2-OS; details: U2OS
Procedure: as §1

[9] = test system: human malignant melanoma cell A375; details: A-375
Procedure: as §1

Hela = details: Homo sapiens
Procedure: as §1

human glioma cell SNB-19 = test system: human glioma cell SNB-19
Procedure: as §1

[10] = test system: human liver cancer cell HepG2
Procedure: as §1

Compound | IC50 [1] [µM] | IC50 [2] [µM] | IC50 [3] [µM] | IC50 [4] [µM] | IC50 [5] [µM] | IC50 [6] [µM] | IC50 [7] [µM] | IC50 [8] [µM] | IC50 [9] [µM] | IC50 (Hela) [µM] | IC50 (human glioma cell SNB-19) [µM] | IC50 [10] [µM] | inhibition at 40 µM (Hela; average proliferation inhibition rate at the dosage of 40 µM) [%]
O=C(O)c1cn(C2CC2)c2cc(N3CCNCC3)c(F)cc2c1=O [Ciprofloxacin] | > 100 | > 100 | > 100 | > 100 | > 100 | > 100 | > 100 | > 100 | > 100 | > 100 | > 100 | > 100 | –
O=C(O)c1cn(C2CC2)c2c(Cl)c(-c3ccc(S(=O)(=O)NCCCC(F)(F)F)nc3)c(F)cc2c1=O [Example 29, 8-chloro-1-cyclopropyl-6-fluoro-4-oxo-7-(6-(N-(4,4,4-trifluorobutyl)sulfamoyl)pyridin-3-yl)-1,4-dihydroquinolin-3-carboxylic acid] | 1 to 10 | 1 to 10 | 1 to 10 | 1 to 10 | 1 to 10 | 1 to 10 | 1 to 10 | 1 to 10 | 1 to 10 | 1 to 10 | 1 to 10 | 1 to 10 | ≥ 50
CCN(CC)CCNC(=O)c1c(C)[nH]c(/C=C2\C(=O)Nc3ccc(F)cc32)c1C [Sunitinib] | 20.3 ± 2 | 12.9 ± 10.2 | 22.4 ± 5.2 | 10.2 ± 3.8 | 14.7 ± 6.6 | 17.5 ± 2.4 | 20.7 ± 4.6 | 4.7 ± 1.1 | 19.2 ± 4.6 | 12 ± 2 | 6.5 ± 1.2 | 9.6 ± 2.1 | –
